According to US9708314B2, “Heterocyclic amide compound” (NISSAN CHEMICAL INDUSTRIES, LTD., priority 2013, dated 2017):

Tests used:
Type in all cases: in vivo
[1] = system: Echinochloa oryzacola Vasing.; assay: Test Example 1: herbicidal activity, application before weed generation in submerged conditions; details: Seventeenth Table; for A: Echinochloa oryzicola Vasing. (herbicidal effect grade): Application herbicide amount 320 g/ha
Outline: (§1)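 Pre-emergence water-surface application under 4 cm flooding, same day as sowing, with rice transplanted at 2.5 leaf stage. Dose given as g/ha. Plants grown at 25° C. to 30° C. and rated three weeks later on a 0 (≤5%) to 5 (≥90%) herbicidal-ratio scale.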

Monochoria vaginalis [2] = assay: as above; details: Seventeenth Table; for C: Monochoria vaginalis (herbicidal effect grade): Application herbicide amount 320 g/ha
Outline: as §1

Scirpus juncoides [3] = assay: as above; details: Seventeenth Table; for B: Scirpus juncoides (herbicidal effect grade): Application herbicide amount 320 g/ha
Outline: as §1

[4] = system: transplanted Oryza sativa; assay: Test Example 1: effect on crop, application before weed generation in submerged conditions; details: Seventeenth Table; for a: transplanted Oryza sativa (effect on crop grade): Application herbicide amount 320 g/ha
Outline: as §1

[5] = system: Echinochloa oryzacola Vasing.; assay: Test Example 2: herbicidal activity, application during weed generation in submerged conditions; details: Eighteenth Table; application herbicide amount 320 g/ha
Outline: (§2)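 Scored three weeks post-application on a 0–5 scale (5: ≥90% herbicidal ratio, almost withered; 0: ≤5%). Plants raised from mixed-sown seed in submerged alluvial soil (4 cm water), 25–30 °C greenhouse; water-diluted emulsion applied onto water surface at one- to two-leaf stage, dose in g/ha.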

Monochoria vaginalis [6] = assay: as above; details: Eighteenth Table; application herbicide amount 320 g/ha
Outline: as §2

Scirpus juncoides [7] = assay: as above; details: Eighteenth Table; application herbicide amount 320 g/ha
Outline: as §2

[8] = system: directly sowed Oryza sativa; assay: Test Example 3: effect on crop by application to foliage (Wagner pot, water depth 0.1-0.5 cm); details: Nineteenth Table; application to foliage; application herbicide amount 320 g/ha
Outline: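 Seeds were sown in alluvial soil in Wagner pots, grown for 14 days at 25–30 °C, then sprayed uniformly on foliage with the emulsified compound diluted to a given rate per hectare. Injury was graded three weeks after treatment from 0 (≤5%) to 5 (≥90%).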

[9] = application herbicide amount 320 g/ha

SMILES	A: Echinochloa oryzicola Vasing. (herbicidal effect grade) [1]	C: Monochoria vaginalis (herbicidal effect grade) (Monochoria vaginalis [2])	B: Scirpus juncoides (herbicidal effect grade) (Scirpus juncoides [3])	a: transplanted Oryza sativa (effect on crop grade) [4]	A (Echinochloa oryzicola Vasing.) herbicidal ratio grade [5]	C (Monochoria vaginalis) herbicidal ratio grade (Monochoria vaginalis [6])	B (Scirpus juncoides) herbicidal ratio grade (Scirpus juncoides [7])	b (effect on crop grade) [8]	A (Echinochloa oryzicola Vasing.) herbicidal ratio grade [1, 9]	C (Monochoria vaginalis) herbicidal ratio grade (Monochoria vaginalis [2]; [9])	B (Scirpus juncoides) herbicidal ratio grade (Scirpus juncoides [3]; [9])	a (transplanted Oryza sativa) effect on crop grade [4, 9]
Cn1nnnc1NC(=O)c1ccc(C(F)(F)F)n2c(SCc3ccccc3)nnc12 [2-076]	5 (Herbicidal ratio of 90% or more (almost completely withered))	3 (Herbicidal ratio of 40% or more and less than 70%)	4 (Herbicidal ratio of 70% or more and less than 90%)	2 (Herbicidal ratio of 20% or more and less than 40%)	2 (Herbicidal ratio of 20% or more and less than 40%)	2 (Herbicidal ratio of 20% or more and less than 40%)	3 (Herbicidal ratio of 40% or more and less than 70%)	1 (Herbicidal ratio of 5% or more and less than 20%)	–	–	–	–
CSCCn1nnnc1NC(=O)c1ccc(C(F)(F)F)n2c(C(C)C)nnc12 [2-048]	5 (Herbicidal ratio of 90% or more (almost completely withered))	4 (Herbicidal ratio of 70% or more and less than 90%)	5 (Herbicidal ratio of 90% or more (almost completely withered))	4 (Herbicidal ratio of 70% or more and less than 90%)	3 (Herbicidal ratio of 40% or more and less than 70%)	3 (Herbicidal ratio of 40% or more and less than 70%)	4 (Herbicidal ratio of 70% or more and less than 90%)	3 (Herbicidal ratio of 40% or more and less than 70%)	–	–	–	–
Cn1nnnc1NC(=O)c1ccc(C(F)(F)F)n2c(SCC3CCCO3)nnc12 (centres unmarked) [2-085]	5 (Herbicidal ratio of 90% or more (almost completely withered))	4 (Herbicidal ratio of 70% or more and less than 90%)	5 (Herbicidal ratio of 90% or more (almost completely withered))	1 (Herbicidal ratio of 5% or more and less than 20%)	4 (Herbicidal ratio of 70% or more and less than 90%)	3 (Herbicidal ratio of 40% or more and less than 70%)	4 (Herbicidal ratio of 70% or more and less than 90%)	4 (Herbicidal ratio of 70% or more and less than 90%)	–	–	–	–
Cn1nnnc1NC(=O)c1ccc(C(F)(F)F)n2c(SCC(F)(F)F)nnc12 [2-087]	5 (Herbicidal ratio of 90% or more (almost completely withered))	4 (Herbicidal ratio of 70% or more and less than 90%)	5 (Herbicidal ratio of 90% or more (almost completely withered))	3 (Herbicidal ratio of 40% or more and less than 70%)	4 (Herbicidal ratio of 70% or more and less than 90%)	3 (Herbicidal ratio of 40% or more and less than 70%)	4 (Herbicidal ratio of 70% or more and less than 90%)	3 (Herbicidal ratio of 40% or more and less than 70%)	–	–	–	–
CCS(=O)(=O)c1nnc2c(C(=O)Nc3nnnn3C)ccc(C(F)(F)F)n12 [2-038]	5 (Herbicidal ratio of 90% or more (almost completely withered))	5 (Herbicidal ratio of 90% or more (almost completely withered))	5 (Herbicidal ratio of 90% or more (almost completely withered))	4 (Herbicidal ratio of 70% or more and less than 90%)	5 (Herbicidal ratio of 90% or more (almost completely withered))	5 (Herbicidal ratio of 90% or more (almost completely withered))	4 (Herbicidal ratio of 70% or more and less than 90%)	5 (Herbicidal ratio of 90% or more (almost completely withered))	–	–	–	–
COc1ccccc1-c1nnc2c(C(=O)Nc3nnnn3C)ccc(C(F)(F)F)n12 [2-045]	5 (Herbicidal ratio of 90% or more (almost completely withered))	5 (Herbicidal ratio of 90% or more (almost completely withered))	5 (Herbicidal ratio of 90% or more (almost completely withered))	5 (Herbicidal ratio of 90% or more (almost completely withered))	5 (Herbicidal ratio of 90% or more (almost completely withered))	4 (Herbicidal ratio of 70% or more and less than 90%)	3 (Herbicidal ratio of 40% or more and less than 70%)	5 (Herbicidal ratio of 90% or more (almost completely withered))	–	–	–	–
CC(c1nnc2c(C(=O)Nc3nnnn3C)ccc(C(F)(F)F)n12)S(C)(=O)=O (centres unmarked) [2-054]	5 (Herbicidal ratio of 90% or more (almost completely withered))	5 (Herbicidal ratio of 90% or more (almost completely withered))	5 (Herbicidal ratio of 90% or more (almost completely withered))	5 (Herbicidal ratio of 90% or more (almost completely withered))	5 (Herbicidal ratio of 90% or more (almost completely withered))	5 (Herbicidal ratio of 90% or more (almost completely withered))	4 (Herbicidal ratio of 70% or more and less than 90%)	5 (Herbicidal ratio of 90% or more (almost completely withered))	–	–	–	–
Cn1nnnc1NC(=O)c1ccc(C(F)(F)F)n2c(NCC(F)(F)F)nnc12 [2-081]	4 (Herbicidal ratio of 70% or more and less than 90%)	4 (Herbicidal ratio of 70% or more and less than 90%)	3 (Herbicidal ratio of 40% or more and less than 70%)	3 (Herbicidal ratio of 40% or more and less than 70%)	2 (Herbicidal ratio of 20% or more and less than 40%)	2 (Herbicidal ratio of 20% or more and less than 40%)	2 (Herbicidal ratio of 20% or more and less than 40%)	4 (Herbicidal ratio of 70% or more and less than 90%)	–	–	–	–
COCCSc1nnc2c(C(=O)Nc3nnnn3C)ccc(C(F)(F)F)n12 [2-101]	–	–	–	–	4 (Herbicidal ratio of 70% or more and less than 90%)	5 (Herbicidal ratio of 90% or more (almost completely withered))	4 (Herbicidal ratio of 70% or more and less than 90%)	4 (Herbicidal ratio of 70% or more and less than 90%)	5 (Herbicidal ratio of 90% or more (almost completely withered))	5 (Herbicidal ratio of 90% or more (almost completely withered))	5 (Herbicidal ratio of 90% or more (almost completely withered))	3 (Herbicidal ratio of 40% or more and less than 70%)
CC(C)CSc1nnc2c(C(=O)Nc3nnnn3C)ccc(C(F)(F)F)n12 [2-071]	5 (Herbicidal ratio of 90% or more (almost completely withered))	5 (Herbicidal ratio of 90% or more (almost completely withered))	5 (Herbicidal ratio of 90% or more (almost completely withered))	4 (Herbicidal ratio of 70% or more and less than 90%)	3 (Herbicidal ratio of 40% or more and less than 70%)	5 (Herbicidal ratio of 90% or more (almost completely withered))	5 (Herbicidal ratio of 90% or more (almost completely withered))	3 (Herbicidal ratio of 40% or more and less than 70%)	–	–	–	–
